Results: ChEMBL document CHEMBL1201862, “PubChem BioAssay data set” (2004)
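1) Cells in 96-well plates. 2) Compound, 48 h, 5 concentrations. 3) Linear interpolation between surrounding doses. 4) Unreached endpoint = highest concentration. GI50: concentration for 50% inhibition of growth.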 Activity calls are given as the source filed them. Rule as the data show it: active = GI50 up to about 1.1 µM and inactive = higher.

Key:
Assay in all cases: NCI anticancer screen, dose series, 48 h
A498 = system: A498
BT-549 = system: BT-549
CAKI-1 = system: CAKI-1
CCRF-CEM = system: CCRF-CEM
COLO 205 = system: COLO 205
DU-145 = system: DU-145
HCT-116 = system: HCT-116
HCT-15 = system: HCT-15
HL-60 = system: HL-60
HOP-62 = system: HOP-62
HT-29 = system: HT-29
Hs-578T = system: Hs-578T
IGROV-1 = system: IGROV-1
K562 = system: K562
KM12 = system: KM12
LOX IMVI = system: LOX IMVI
M14 = system: M14
MCF7 = system: MCF7
MDA-MB-231 = system: MDA-MB-231
MDA-MB-435 = system: MDA-MB-435
MDA-N = system: MDA-N
MOLT-4 = system: MOLT-4
Malme-3M = system: Malme-3M
NCI-H226 = system: NCI-H226
NCI-H23 = system: NCI-H23
NCI-H460 = system: NCI-H460
NCI/ADR-RES = system: NCI/ADR-RES
OVCAR-3 = system: OVCAR-3
OVCAR-4 = system: OVCAR-4
OVCAR-5 = system: OVCAR-5
OVCAR-8 = system: OVCAR-8
PC-3 = system: PC-3
RPMI-8226 = system: RPMI-8226
RXF 393 = system: RXF 393
SF-295 = system: SF-295
SK-MEL-28 = system: SK-MEL-28
SK-MEL-2 = system: SK-MEL-2
SK-MEL-5 = system: SK-MEL-5
SK-OV-3 = system: SK-OV-3
SN12C = system: SN12C
SNB-19 = system: SNB-19
SNB-75 = system: SNB-75
SR = system: SR
SW-620 = system: SW-620
T47D = system: T47D
TK-10 = system: TK-10
U-251 = system: U-251
UACC-257 = system: UACC-257
UACC-62 = system: UACC-62
UO-31 = system: UO-31
786-0 = system: 786-0
ACHN = system: ACHN
EKVX = system: EKVX
HCC 2998 = system: HCC 2998
NCI-H522 = system: NCI-H522
SF-268 = system: SF-268

CC(C)(C)[Si](C)(C)OCC1OC(n2cnc3c(N)ncnc32)CC1O (stereo not drawn)
GI50 (A498): 81.8 µM (inactive) | GI50 (BT-549): 32.7 µM (inactive) | GI50 (CAKI-1): 86.9 µM (inactive) | GI50 (CCRF-CEM): 22.6 µM (inactive) | GI50 (COLO 205): 91.6 µM (inactive) | GI50 (DU-145): 95.5 µM (inactive) | GI50 (HCT-116): > 100 µM (inactive) | GI50 (HCT-15): 81.8 µM | GI50 (HL-60): 20 µM (inactive) | GI50 (HOP-62): 92.7 µM (inactive) | GI50 (HT-29): > 100 µM (inactive) | GI50 (Hs-578T): 55.5 µM (inactive) | GI50 (IGROV-1): 76.6 µM (inactive) | GI50 (K562): 21.8 µM (inactive) | GI50 (KM12): 39.6 µM (inactive) | GI50 (LOX IMVI): > 100 µM (inactive) | GI50 (M14): 44.2 µM (inactive) | GI50 (MCF7): > 100 µM (inactive) | GI50 (MDA-MB-231): 52.5 µM (inactive) | GI50 (MDA-MB-435): > 100 µM (inactive) | GI50 (MDA-N): > 100 µM (inactive) | GI50 (MOLT-4): 16.1 µM (inactive) | GI50 (Malme-3M): > 100 µM (inactive) | GI50 (NCI-H226): 53.1 µM (inactive) | GI50 (NCI-H23): 79.4 µM (inactive) | GI50 (NCI-H460): 97.5 µM (inactive) | GI50 (NCI/ADR-RES): 40.4 µM (inactive) | GI50 (OVCAR-3): 51.2 µM (inactive) | GI50 (OVCAR-4): 71.4 µM (inactive) | GI50 (OVCAR-5): 60.8 µM (inactive) | GI50 (OVCAR-8): 87.9 µM (inactive) | GI50 (PC-3): 53.1 µM (inactive) | GI50 (RPMI-8226): 52.8 µM (inactive) | GI50 (RXF 393): 20.6 µM (inactive) | GI50 (SF-295): > 100 µM (inactive) | GI50 (SK-MEL-28): > 100 µM (inactive) | GI50 (SK-MEL-2): 56.1 µM (inactive) | GI50 (SK-MEL-5): 35.6 µM (inactive) | GI50 (SK-OV-3): 81.5 µM (inactive) | GI50 (SN12C): > 100 µM (inactive) | GI50 (SNB-19): > 100 µM (inactive) | GI50 (SNB-75): > 100 µM (inactive) | GI50 (SR): 34.8 µM (inactive) | GI50 (SW-620): > 100 µM (inactive) | GI50 (T47D): 41.6 µM (inactive) | GI50 (TK-10): > 100 µM (inactive) | GI50 (U-251): > 100 µM (inactive) | GI50 (UACC-257): > 100 µM (inactive) | GI50 (UACC-62): 36.9 µM (inactive) | GI50 (UO-31): 13 µM (inactive)

Cc1nc2ccc(NC(=S)Nc3ccccc3)cc2c(=O)n1-c1ccccc1
GI50 (786-0): > 100 µM (inactive) | GI50 (A498): > 100 µM (inactive) | GI50 (ACHN): > 100 µM (inactive) | GI50 (BT-549): > 100 µM (inactive) | GI50 (CAKI-1): > 100 µM (inactive) | GI50 (COLO 205): 80.4 µM (inactive) | GI50 (DU-145): > 100 µM (inactive) | GI50 (EKVX): > 100 µM (inactive) | GI50 (HCC 2998): 66.4 µM (inactive) | GI50 (HCT-116): > 100 µM (inactive) | GI50 (HCT-15): > 100 µM | GI50 (HL-60): 31.8 µM (inactive) | GI50 (HOP-62): > 100 µM (inactive) | GI50 (HT-29): > 100 µM (inactive) | GI50 (Hs-578T): > 100 µM (inactive) | GI50 (IGROV-1): > 100 µM (inactive) | GI50 (K562): 46.3 µM (inactive) | GI50 (KM12): > 100 µM (inactive) | GI50 (LOX IMVI): > 100 µM (inactive) | GI50 (MCF7): > 100 µM (inactive) | GI50 (MDA-MB-231): > 100 µM (inactive) | GI50 (MDA-MB-435): > 100 µM (inactive) | GI50 (MDA-N): > 100 µM (inactive) | GI50 (MOLT-4): 48.9 µM (inactive) | GI50 (Malme-3M): > 100 µM (inactive) | GI50 (NCI-H226): > 100 µM (inactive) | GI50 (NCI-H23): > 100 µM (inactive) | GI50 (NCI-H460): 24.2 µM (inactive) | GI50 (NCI-H522): > 100 µM (inactive) | GI50 (NCI/ADR-RES): > 100 µM (inactive) | GI50 (OVCAR-3): > 100 µM (inactive) | GI50 (OVCAR-4): > 100 µM (inactive) | GI50 (OVCAR-5): > 100 µM (inactive) | GI50 (OVCAR-8): > 100 µM (inactive) | GI50 (PC-3): > 100 µM (inactive) | GI50 (RPMI-8226): 23.6 µM (inactive) | GI50 (RXF 393): > 100 µM (inactive) | GI50 (SF-268): > 100 µM (inactive) | GI50 (SF-295): > 100 µM (inactive) | GI50 (SK-MEL-28): 62.2 µM (inactive) | GI50 (SK-MEL-2): 16.6 µM (inactive) | GI50 (SK-MEL-5): 51.3 µM (inactive) | GI50 (SN12C): > 100 µM (inactive) | GI50 (SNB-19): > 100 µM (inactive) | GI50 (SNB-75): > 100 µM (inactive) | GI50 (SR): > 100 µM (inactive) | GI50 (SW-620): 76.7 µM (inactive) | GI50 (T47D): > 100 µM (inactive) | GI50 (TK-10): > 100 µM (inactive) | GI50 (U-251): 57.7 µM (inactive) | GI50 (UACC-257): > 100 µM (inactive) | GI50 (UACC-62): > 100 µM (inactive) | GI50 (UO-31): > 100 µM (inactive)
